Results published in ChEMBL document CHEMBL3351642, “Synthesis and structure-activity relationships of PI3K/mTOR dual inhibitors from a series of 2-amino-4-methylpyrido[2,3-d]pyrimidine derivatives” (Bioorg Med Chem Lett, 2014).

Legend:
[1] = target: Phosphatidylinositol 4,5-bisphosphate 3-kinase catalytic subunit alpha isoform (Homo sapiens, UniProt P42336); experiment: Inhibition of PI3Kalpha (unknown origin) using PIP2/PS as substrate preincubated for 15 mins before substrate addition by luciferase-based luminescence assay
Sequence of Phosphatidylinositol 4,5-bisphosphate 3-kinase catalytic subunit alpha isoform (P42336 whole entry, canonical isoform): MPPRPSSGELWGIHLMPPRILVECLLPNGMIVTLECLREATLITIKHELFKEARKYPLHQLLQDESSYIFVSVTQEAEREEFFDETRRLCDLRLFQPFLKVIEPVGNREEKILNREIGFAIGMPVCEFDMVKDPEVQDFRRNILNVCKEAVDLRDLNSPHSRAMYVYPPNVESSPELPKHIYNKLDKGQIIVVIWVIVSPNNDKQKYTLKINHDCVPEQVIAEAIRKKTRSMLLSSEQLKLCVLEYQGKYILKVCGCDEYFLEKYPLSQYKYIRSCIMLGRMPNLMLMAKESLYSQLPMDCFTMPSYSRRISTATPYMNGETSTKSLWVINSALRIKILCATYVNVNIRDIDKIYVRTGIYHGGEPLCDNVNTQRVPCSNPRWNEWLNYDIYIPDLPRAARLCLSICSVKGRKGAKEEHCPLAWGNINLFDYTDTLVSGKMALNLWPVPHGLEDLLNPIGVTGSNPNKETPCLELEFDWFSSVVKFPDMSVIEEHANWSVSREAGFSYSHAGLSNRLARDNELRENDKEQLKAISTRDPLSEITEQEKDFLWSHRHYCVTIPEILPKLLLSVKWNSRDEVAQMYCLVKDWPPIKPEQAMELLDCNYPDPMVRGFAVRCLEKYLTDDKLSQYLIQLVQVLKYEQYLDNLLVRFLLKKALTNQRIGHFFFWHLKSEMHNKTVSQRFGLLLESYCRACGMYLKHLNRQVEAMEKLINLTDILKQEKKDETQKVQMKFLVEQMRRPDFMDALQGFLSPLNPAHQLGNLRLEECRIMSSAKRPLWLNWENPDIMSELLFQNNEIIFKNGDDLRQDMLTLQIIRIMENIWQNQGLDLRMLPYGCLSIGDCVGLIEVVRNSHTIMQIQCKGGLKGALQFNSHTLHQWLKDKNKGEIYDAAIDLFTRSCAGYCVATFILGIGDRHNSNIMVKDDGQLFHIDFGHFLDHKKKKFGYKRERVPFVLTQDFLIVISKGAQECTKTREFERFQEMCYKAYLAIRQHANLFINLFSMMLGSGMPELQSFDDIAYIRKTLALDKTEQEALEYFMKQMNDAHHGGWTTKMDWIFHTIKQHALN

[2] = target: Serine/threonine-protein kinase mTOR (Homo sapiens, UniProt P42345); experiment: Inhibition of mTOR (unknown origin) assessed as inhibition of 4EBP-1 phosphorylation preincubated for 15 mins before substrate addition by TR-FRET assay
[3] = Antiproliferative activity against human U87MG cells after 4 days by CellTiter-Glo assay; conditions: U-87 MG, 96 h
[4] = Antiproliferative activity against human SKOV3 cells after 3 days by CellTiter-Glo assay; conditions: SK-OV-3, 72 h
[5] = Apparent permeability from basolateral to apical side of human Caco2 cells at 10 uM after 90 mins by LC/MS/MS analysis; type: ADME, cell-based; conditions: Caco-2
[6] = Apparent permeability from apical to basolateral side of human Caco2 cells at 10 uM after 90 mins by LC/MS/MS analysis; type: ADME, cell-based; conditions: Caco-2
[7] = Efflux ratio of apparent permeability from basolateral to apical side to apical to basolateral of human Caco2 cells; type: ADME, cell-based; conditions: Caco-2

Cc1nc(N)nc2ncc(-c3cnc4[nH]nc(NS(=O)(=O)c5ccc(F)cc5F)c4c3)cc12
IC50 [1]: 82.4 nM

COc1ncc(-c2cnc3nc(N)nc(C)c3c2)cc1NS(C)(=O)=O
IC50 [1]: 145 nM

COc1ncc(-c2cnc3nc(N)nc(C)c3c2)cc1NS(=O)(=O)c1ccc(Cl)s1
IC50 [1]: 6.87 nM | IC50 [2]: 37.6 nM

Cc1nc(N)nc2ncc(-c3cnc4[nH]cc(NS(=O)(=O)c5ccc(F)cc5F)c4c3)cc12
IC50 [1]: 76.5 nM

COc1ncc(-c2cnc3nc(N)nc(C)c3c2)cc1F
IC50 [1]: 117 nM

COc1ncc(-c2cnc3nc(N)nc(C)c3c2)cc1NS(=O)(=O)C1CC1
IC50 [1]: 55.6 nM

COc1ncc(-c2cnc3nc(N)nc(C)c3c2)cn1
IC50 [1]: 218 nM

COc1ncc(-c2cnc3nc(N)nc(C)c3c2)cc1NS(=O)(=O)c1cccnc1
IC50 [1]: 7.82 nM | IC50 [2]: 111 nM

COc1ncc(-c2cnc3nc(N)nc(C)c3c2)cc1NC(=O)Nc1ccc(F)cc1F
IC50 [1]: > 1000 nM

COc1ncc(-c2cnc3nc(N)nc(C)c3c2)cc1NS(=O)(=O)c1ccccc1
IC50 [1]: 63.1 nM | IC50 [2]: 79.2 nM

COc1ncc(-c2cnc3nc(N)nc(C)c3c2)cc1NS(=O)(=O)c1ccc(C(F)(F)F)cc1
IC50 [1]: 8.41 nM | IC50 [2]: 67 nM

COc1ccc(S(=O)(=O)Nc2cc(-c3cnc4nc(N)nc(C)c4c3)cnc2OC)cc1
IC50 [1]: 67 nM | IC50 [2]: 180 nM

COc1ccc(-c2cc3c(C)nc(N)nc3n([C@H]3CC[C@H](OCCO)CC3)c2=O)cn1 [PF-04691502]
IC50 [3]: 520 nM | IC50 [4]: 290 nM | Papp B→A at 1.5 h, 10 µM [5]: 32.5 ×10⁻⁶ cm/s | Papp A→B at 1.5 h, 10 µM [6]: 25.7 ×10⁻⁶ cm/s

COc1ncc(-c2cnc3nc(N)nc(C)c3c2)cc1NS(=O)(=O)c1cccs1
IC50 [1]: 23.3 nM | IC50 [2]: 245 nM

CCCCS(=O)(=O)Nc1cc(-c2cnc3nc(N)nc(C)c3c2)cnc1OC
IC50 [1]: 47.5 nM

COc1ncc(-c2cnc3nc(N)nc(C)c3c2)cc1N
IC50 [1]: 632 nM

COc1ncc(-c2cnc3nc(N)nc(C)c3c2)cc1NS(=O)(=O)c1ccc(C#N)cc1
IC50 [1]: 2.82 nM | efflux ratio [7]: 13.5 | IC50 [2]: 45.8 nM | IC50 [3]: 2440 nM | IC50 [4]: 9150 nM | Papp B→A at 1.5 h, 10 µM [5]: 14 ×10⁻⁶ cm/s | Papp A→B at 1.5 h, 10 µM [6]: 1.04 ×10⁻⁶ cm/s

Cc1nc(N)nc2ncc(-c3cnc4[nH]ccc4c3)cc12
IC50 [1]: 38 nM

COc1ccc(-c2cnc3nc(N)nc(C)c3c2)cn1
IC50 [1]: 414 nM

COc1ncc(-c2cnc3nc(N)nc(C)c3c2)cc1NC(=O)c1ccc(F)cc1F
IC50 [1]: > 1000 nM

COc1ncc(-c2cnc3nc(N)nc(C)c3c2)cc1NC(=O)C(F)(F)F
IC50 [1]: > 1000 nM
